This experiment deals with Kelch-like ECH-associated protein 1 (Homo sapiens, UniProt Q14145). The experiment in a line: Binding affinity to human KEAP1 Kelch domain (322 to 609 residues) incubated for 60 mins by TR-FRET assay. A general note: TR-FRET usually uses a lanthanide donor and a delayed reading to cut background.

Non-standard residues stand in square brackets, D forms with d. Residues, ends and D or L forms follow the SMILES beside them. Phe(4-CONH2) = NC(=O)c1ccc(C[C@H](N)C(=O)O)cc1; Pro(cis-4-F) = O=C(O)[C@@H]1C[C@H](F)CN1; hPhe = N[C@@H](CCc1ccccc1)C(=O)O; hSer = N[C@@H](CCO)C(=O)O

Chain of Kelch-like ECH-associated protein 1 (Q14145 whole entry, the tested form may be a part): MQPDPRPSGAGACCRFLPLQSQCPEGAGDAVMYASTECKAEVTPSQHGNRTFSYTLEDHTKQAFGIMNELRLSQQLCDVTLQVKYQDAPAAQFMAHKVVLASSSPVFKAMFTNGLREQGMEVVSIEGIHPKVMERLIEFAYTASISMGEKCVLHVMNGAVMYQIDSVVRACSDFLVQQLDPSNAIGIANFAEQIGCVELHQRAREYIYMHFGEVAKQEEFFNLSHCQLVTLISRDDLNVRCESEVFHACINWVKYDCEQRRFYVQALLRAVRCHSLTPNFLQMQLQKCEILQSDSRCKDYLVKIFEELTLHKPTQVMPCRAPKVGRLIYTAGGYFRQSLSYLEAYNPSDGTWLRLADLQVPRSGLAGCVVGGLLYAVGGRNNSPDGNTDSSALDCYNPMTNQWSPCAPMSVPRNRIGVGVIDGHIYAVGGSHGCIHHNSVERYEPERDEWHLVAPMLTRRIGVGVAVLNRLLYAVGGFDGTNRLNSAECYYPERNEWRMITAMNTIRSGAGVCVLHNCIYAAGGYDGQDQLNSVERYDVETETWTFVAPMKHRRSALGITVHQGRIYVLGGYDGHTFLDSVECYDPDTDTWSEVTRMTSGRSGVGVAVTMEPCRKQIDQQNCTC

The term IC50 denotes the concentration needed to halve the response being measured. Low values mean greater potency in that assay, high ones weaker potency in that assay. Compound `CC(=O)N[C@@H](CC(C)C)C(=O)N[C@@H](CC(=O)O)C(=O)N[C@@H](CCC(=O)O)C(=O)N[C@@H](CCC(=O)O)C(=O)N[C@H](C(=O)NCC(=O)N[C@@H](Cc1ccc(C(N)=O)cc1)C(=O)N[C@@H](Cc1ccccc1)C(=O)N[C@@H](CC(C)C)C(N)=O)[C@@H](C)O` (Ac-LDEETG[Phe(4-CONH2)]FL-NH2) came in with an IC50 of more than 64 µM.

In turn, `CC(=O)N[C@@H](CC(C)C)C(=O)N[C@@H](CC(=O)O)C(=O)N[C@@H](CCC(=O)O)C(=O)N[C@@H](CCC(=O)O)C(=O)N[C@H](C(=O)NCC(=O)N[C@@H](CCO)C(=O)N[C@@H](Cc1ccccc1)C(=O)N[C@@H](CC(C)C)C(N)=O)[C@@H](C)O` (Ac-LDEETG[hSer]FL-NH2) displayed an IC50 of more than 50 µM.

For `CC(=O)N[C@@H](CC(C)C)C(=O)N[C@@H](CC(=O)O)C(=O)N[C@@H](CCC(=O)O)C(=O)N[C@@H](CCc1ccccc1)C(=O)N[C@H](C(=O)NCC(=O)N[C@@H](CCC(=O)O)C(=O)N[C@@H](Cc1ccccc1)C(=O)N[C@@H](CC(C)C)C(N)=O)[C@@H](C)O` (Ac-LDE[hPhe]TGEFL-NH2), the IC50 was more than 64 µM.

`CC(=O)N[C@@H](CC(C)C)C(=O)N[C@@H](CC(=O)O)C(=O)N1C[C@@H](F)C[C@H]1C(=O)N[C@@H](CCC(=O)O)C(=O)N[C@@H](Cc1ccccc1)C(=O)NCC(=O)N[C@@H](CCC(=O)O)C(=O)N[C@@H](Cc1ccccc1)C(=O)N[C@@H](CC(C)C)C(N)=O` (Ac-LD[Pro(cis-4-F)]EFGEFL-NH2): the IC50 is more than 64 µM.

Take Ac-LDEQTGEFL-NH2: the IC50 is more than 64 µM.

These data come from ChEMBL document CHEMBL4665857, “Optimization of linear and cyclic peptide inhibitors of KEAP1-NRF2 protein-protein interaction” (Bioorg Med Chem, 2020).
